# Assay results as given in PubChem BioAssay AID2060611 (Molecular Pharmacology Branch, DTP, NCI, 2025).
# Values joined by “and” are separate entries in the source; they are usually repeats but may differ in a detail not shown here. Equal values may be shown once.
# Tested on: 628569-122-R-J1-PDC complex spheroid viability
# Assay: Anticancer human tumor 628569-122-R-J1-PDC patient-derived head and neck squamous carcinoma cell line growth inhibition [CLK]
# Conditions: for viability, T/C: stronger effect = lower value
# Summary of the method: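 Patient-derived tumor cells grown as complex spheroids with HUVEC endothelial cells and mesenchymal stem cells, treated with drug combinations. Concentrations descend in half-log steps from near clinical Cmax, or from 10 microM if Cmax unknown.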
# [1] = curve of first compound, second compound 0.0316 µM
# [2] = curve of first compound, second compound 0.1 µM
# [3] = curve of first compound, second compound 0.316 µM
# [4] = curve of first compound, second compound 1 µM
# [5] = curve of first compound, second compound 3.16 µM
# [6] = curve of first compound, second compound 10 µM
# [7] = second compound 0.0316 µM, first compound 0.0316 µM
# [8] = second compound 0.0316 µM, first compound 0.1 µM
# [9] = second compound 0.0316 µM, first compound 0.316 µM
# [10] = second compound 0.0316 µM, first compound 1 µM
# [11] = second compound 0.0316 µM, first compound 3.16 µM
# [12] = second compound 0.0316 µM, first compound 10 µM
# [13] = second compound 0.1 µM, first compound 0.0316 µM
# [14] = second compound 0.1 µM, first compound 0.1 µM
# [15] = second compound 0.1 µM, first compound 0.316 µM
# [16] = second compound 0.1 µM, first compound 1 µM
# [17] = second compound 0.1 µM, first compound 3.16 µM
# [18] = second compound 0.1 µM, first compound 10 µM
# [19] = second compound 0.316 µM, first compound 0.0316 µM
# [20] = second compound 0.316 µM, first compound 0.1 µM
# [21] = second compound 0.316 µM, first compound 0.316 µM
# [22] = second compound 0.316 µM, first compound 1 µM
# [23] = second compound 0.316 µM, first compound 3.16 µM
# [24] = second compound 0.316 µM, first compound 10 µM
# [25] = second compound 1 µM, first compound 0.0316 µM
# [26] = second compound 1 µM, first compound 0.1 µM
# [27] = second compound 1 µM, first compound 0.316 µM
# [28] = second compound 1 µM, first compound 1 µM
# [29] = second compound 1 µM, first compound 3.16 µM
# [30] = second compound 1 µM, first compound 10 µM
# [31] = second compound 3.16 µM, first compound 0.0316 µM
# [32] = second compound 3.16 µM, first compound 0.1 µM
# [33] = second compound 3.16 µM, first compound 0.316 µM
# [34] = second compound 3.16 µM, first compound 1 µM
# [35] = second compound 3.16 µM, first compound 3.16 µM
# [36] = second compound 3.16 µM, first compound 10 µM
# [37] = second compound 10 µM, first compound 0.0316 µM
# [38] = second compound 10 µM, first compound 0.1 µM
# [39] = second compound 10 µM, first compound 0.316 µM
# [40] = second compound 10 µM, first compound 1 µM
# [41] = second compound 10 µM, first compound 3.16 µM
# [42] = second compound 10 µM, first compound 10 µM
# 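Also: spheroids exposed to agents for seven days before readout.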
# 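For viability, T/C in this document: 100% = DMSO vehicle control viability.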
compound,measurement,setting,value
CC1(C)CCC(CN2CCN(c3ccc(C(=O)NS(=O)(=O)c4ccc(NCC5CCOCC5)c([N+](=O)[O-])c4)c(Oc4cnc5[nH]ccc5c4)c3)CC2)=C(c2ccc(Cl)cc2)C1 + CNC(=O)c1ccc(Nc2nc(OC3CCCC3)c3c(-c4ccc5nc(C)oc5c4)c[nH]c3n2)c(OC)c1,IC50,[1],> 10000 nM
same,IC50,[2],> 10000 nM
same,IC50,[3],> 10000 nM
same,IC50,[4],> 10000 nM
same,IC50,[5],< 31.6 nM
same,IC50,[6],80.2 nM
same,"viability, T/C",[7],124%
same,"viability, T/C",[8],102%
same,"viability, T/C",[9],96.6%
same,"viability, T/C",[10],94.7%
same,"viability, T/C",[11],111%
same,"viability, T/C",[12],75.4%
same,"viability, T/C",[13],65.9%
same,"viability, T/C",[14],55.9%
same,"viability, T/C",[15],60.4%
same,"viability, T/C",[16],57.5%
same,"viability, T/C",[17],60.4%
same,"viability, T/C",[18],63.4%
same,"viability, T/C",[19],52.7%
same,"viability, T/C",[20],51.8%
same,"viability, T/C",[21],53.6%
same,"viability, T/C",[22],57.9%
same,"viability, T/C",[23],69.7%
same,"viability, T/C",[24],51%
same,"viability, T/C",[25],48.1%
same,"viability, T/C",[26],51.4%
same,"viability, T/C",[27],53.2%
same,"viability, T/C",[28],59.6%
same,"viability, T/C",[29],49.4%
same,"viability, T/C",[30],53.6%
same,"viability, T/C",[31],46.1%
same,"viability, T/C",[32],48.4%
same,"viability, T/C",[33],53.5%
same,"viability, T/C",[34],51.4%
same,"viability, T/C",[35],45.8%
same,"viability, T/C",[36],41.2%
same,"viability, T/C",[37],59.9%
same,"viability, T/C",[38],48.7%
same,"viability, T/C",[39],41.1%
same,"viability, T/C",[40],43.5%
same,"viability, T/C",[41],47.2%
same,"viability, T/C",[42],38.6%
O=c1[nH]cc(F)c(=O)[nH]1,"viability, T/C",compound 0.0316 µM,93.5% and 94.5%
same,"viability, T/C",compound 0.1 µM,103% and 97.7%
same,"viability, T/C",compound 0.316 µM,96% and 86.2%
same,"viability, T/C",compound 1 µM,82.7% and 70.5%
same,"viability, T/C",compound 3.16 µM,84.2% and 69.9%
same,"viability, T/C",compound 10 µM,68.2% and 50.6%
same,IC50,curve of compound,> 10000 nM
CC(CO)NC(=O)c1cc(-c2ccc(Cl)cc2)nn(-c2cnn(C)c2)c1=O (configuration not stated),"viability, T/C",compound 0.0316 µM,112% and 116%
same,"viability, T/C",compound 0.1 µM,123% and 158%
same,"viability, T/C",compound 0.316 µM,177% and 202%
same,"viability, T/C",compound 1 µM,169% and 217%
same,"viability, T/C",compound 3.16 µM,175% and 243%
same,"viability, T/C",compound 10 µM,149% and 181%
same,IC50,curve of compound,> 10000 nM
COc1cccc2c1C(=O)c1c(O)c3c(c(O)c1C2=O)CC(O)(C(=O)CO)CC3OC1CC(N)C(O)C(C)O1 (configuration not stated) + CNC(=O)c1ccc(Nc2nc(OC3CCCC3)c3c(-c4ccc5nc(C)oc5c4)c[nH]c3n2)c(OC)c1,IC50,[1],479 nM
same,IC50,[2],446 nM
same,IC50,[3],373 nM
same,IC50,[4],31.6 nM
same,IC50,[5],< 31.6 nM
same,IC50,[6],< 31.6 nM
same,"viability, T/C",[7],65.1%
same,"viability, T/C",[8],56.3%
same,"viability, T/C",[9],88.3%
same,"viability, T/C",[10],12.9%
same,"viability, T/C",[11],19.5%
same,"viability, T/C",[12],11.4%
same,"viability, T/C",[13],49.7%
same,"viability, T/C",[14],62.8%
same,"viability, T/C",[15],91.8%
same,"viability, T/C",[16],5.99%
same,"viability, T/C",[17],11.4%
same,"viability, T/C",[18],5.02%
same,"viability, T/C",[19],47%
same,"viability, T/C",[20],47.1%
same,"viability, T/C",[21],75.8%
same,"viability, T/C",[22],9.78%
same,"viability, T/C",[23],17.6%
same,"viability, T/C",[24],4.53%
same,"viability, T/C",[25],39.9%
same,"viability, T/C",[26],47.9%
same,"viability, T/C",[27],58.3%
same,"viability, T/C",[28],7.25%
same,"viability, T/C",[29],14.1%
same,"viability, T/C",[30],5.15%
same,"viability, T/C",[31],43.2%
same,"viability, T/C",[32],52.5%
same,"viability, T/C",[33],50.3%
same,"viability, T/C",[34],9.3%
same,"viability, T/C",[35],10.3%
same,"viability, T/C",[36],5.46%
same,"viability, T/C",[37],41%
same,"viability, T/C",[38],48.8%
same,"viability, T/C",[39],47.9%
same,"viability, T/C",[40],6.06%
same,"viability, T/C",[41],11.8%
same,"viability, T/C",[42],6.29%
CC(C)CC(NC(=O)C(Cc1ccccc1)NC(=O)c1cnccn1)B(O)O (configuration not stated),"viability, T/C",compound 0.000949 µM,86.3% and 91.7%
same,"viability, T/C",compound 0.003 µM,68% and 73.5%
same,"viability, T/C",compound 0.00949 µM,16.2% and 14.8%
same,"viability, T/C",compound 0.03 µM,8.01% and 3.1%
same,"viability, T/C",compound 0.0949 µM,7.3% and 7.41%
same,"viability, T/C",compound 0.3 µM,6.04% and 11.3%
same,IC50,curve of compound,4.47 nM and 4.75 nM
COc1c(OCCCN2CCOCC2)ccc2c3n(c(=NC(=O)c4cnc(N)nc4)nc12)CCN3 + CNC(=O)c1ccc(Nc2nc(OC3CCCC3)c3c(-c4ccc5nc(C)oc5c4)c[nH]c3n2)c(OC)c1,IC50,[1],23.4 nM
same,IC50,[2],< 3.16 nM
same,IC50,[3],< 3.16 nM
same,IC50,[4],< 3.16 nM
same,IC50,[5],< 3.16 nM
same,IC50,[6],< 3.16 nM
same,"viability, T/C","second compound 0.0316 µM, first compound 0.00316 µM",83.1%
same,"viability, T/C","second compound 0.0316 µM, first compound 0.01 µM",66.5%
same,"viability, T/C",[7],43.5%
same,"viability, T/C",[8],25.6%
same,"viability, T/C",[9],20.6%
same,"viability, T/C",[10],5.3%
same,"viability, T/C","second compound 0.1 µM, first compound 0.00316 µM",46.8%
same,"viability, T/C","second compound 0.1 µM, first compound 0.01 µM",46.2%
same,"viability, T/C",[13],28.7%
same,"viability, T/C",[14],22%
same,"viability, T/C",[15],19.6%
same,"viability, T/C",[16],8.28%
same,"viability, T/C","second compound 0.316 µM, first compound 0.00316 µM",48.3%
same,"viability, T/C","second compound 0.316 µM, first compound 0.01 µM",47.7%
same,"viability, T/C",[19],29.8%
same,"viability, T/C",[20],17.1%
same,"viability, T/C",[21],16.2%
same,"viability, T/C",[22],6.59%
same,"viability, T/C","second compound 1 µM, first compound 0.00316 µM",37.8%
same,"viability, T/C","second compound 1 µM, first compound 0.01 µM",34.3%
same,"viability, T/C",[25],27.3%
same,"viability, T/C",[26],23.5%
same,"viability, T/C",[27],13.9%
same,"viability, T/C",[28],3.21%
same,"viability, T/C","second compound 3.16 µM, first compound 0.00316 µM",41.6%
same,"viability, T/C","second compound 3.16 µM, first compound 0.01 µM",34.7%
same,"viability, T/C",[31],27.4%
same,"viability, T/C",[32],15.4%
same,"viability, T/C",[33],5.46%
same,"viability, T/C",[34],3.02%
same,"viability, T/C","second compound 10 µM, first compound 0.00316 µM",37.5%
same,"viability, T/C","second compound 10 µM, first compound 0.01 µM",28.5%
same,"viability, T/C",[37],30.3%
same,"viability, T/C",[38],12.8%
same,"viability, T/C",[39],21.6%
same,"viability, T/C",[40],7.07%
